Assay results taken from the supplement of paper PMC10307832.

Legend:
Test in all cases: relative viability (nuclei count vs DMSO), 5 days (fraction); higher = more cells survive
[1] = system: A-427
In short: (§1)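 Relative viability divides the nuclei count in treated wells by that in vehicle wells. Lung cancer cell lines were seeded in 1536-well plates, dosed by pin tool the next day, and fixed and stained after 5 days in one step with final 0.05% Triton X-100, 1% formaldehyde and 1 ug/ml Hoechst. Dosing was a single drug or a fixed anchor-drug dose plus five library-drug doses (not always all listed) in √10 steps, and values are medians of duplicate plates imaged at 4×.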

[2] = system: NCI-H460
In short: as §1

[3] = system: BEN
In short: as §1

[4] = system: HCC-15
In short: as §1

[5] = system: NCI-H2405
In short: as §1

[6] = system: EMC-BAC-2
In short: as §1

[7] = system: HOP-62
In short: as §1

[8] = system: NCI-H522
In short: as §1

[9] = system: 201T
In short: as §1

[10] = system: NCI-H1563
In short: as §1

[11] = system: NCI-H661
In short: as §1

[12] = system: LK-2
In short: as §1

[13] = system: NCI-H1734
In short: as §1

[14] = system: EKVX
In short: as §1

[15] = system: COR-L 105
In short: as §1

[16] = system: PC-14
In short: as §1

[17] = system: COR-L23
In short: as §1

[18] = system: HCC-78
In short: as §1

[19] = system: NCI-H647
In short: as §1

[20] = system: NCI-H1993
In short: as §1

[21] = system: HCC-366
In short: as §1

[22] = system: SK-MES-1
In short: as §1

[23] = system: NCI-H1915
In short: as §1

CN1CCN(CCOc2cc(OC3CCOCC3)c3c(Nc4c(Cl)ccc5c4OCO5)ncnc3c2)CC1 [Saracatinib] + Nc1nc2[nH]cc(CCc3ccc(C(=O)N[C@@H](CCC(=O)O)C(=O)O)cc3)c2c(=O)[nH]1 [Pemetrexed] (partner 0.2 µM)
relative viability ([1]; first compound 0.02 µM): 0.963
relative viability ([1]; first compound 0.2 µM): 0.787
relative viability ([1]; first compound 0.6325 µM): 0.846
relative viability ([1]; first compound 2 µM): 1.01
relative viability ([2]; first compound 0.02 µM): 0.0672
relative viability ([2]; first compound 0.2 µM): 0.0368
relative viability ([2]; first compound 0.6325 µM): 0.0538
relative viability ([2]; first compound 2 µM): 0.0548
relative viability ([3]; first compound 0.02 µM): 0.916
relative viability ([3]; first compound 0.2 µM): 0.824
relative viability ([3]; first compound 0.6325 µM): 0.727
relative viability ([3]; first compound 2 µM): 0.667
relative viability ([4]; first compound 0.02 µM): 0.213
relative viability ([4]; first compound 0.2 µM): 0.225
relative viability ([4]; first compound 0.6325 µM): 0.219
relative viability ([4]; first compound 2 µM): 0.222
relative viability ([5]; first compound 0.02 µM): 0.995
relative viability ([5]; first compound 0.2 µM): 0.671
relative viability ([5]; first compound 0.6325 µM): 0.843
relative viability ([5]; first compound 2 µM): 0.488
relative viability ([6]; first compound 0.02 µM): 0.456
relative viability ([6]; first compound 0.2 µM): 0.373
relative viability ([6]; first compound 0.6325 µM): 0.44
relative viability ([6]; first compound 2 µM): 0.442
relative viability ([7]; first compound 0.02 µM): 0.377
relative viability ([7]; first compound 0.2 µM): 0.33
relative viability ([7]; first compound 0.6325 µM): 0.332
relative viability ([7]; first compound 2 µM): 0.375
relative viability ([8]; first compound 0.02 µM): 1.15
relative viability ([8]; first compound 0.2 µM): 0.918
relative viability ([8]; first compound 0.6325 µM): 0.735
relative viability ([8]; first compound 2 µM): 0.747
relative viability ([9]; first compound 0.02 µM): 0.312
relative viability ([9]; first compound 0.2 µM): 0.337
relative viability ([9]; first compound 0.6325 µM): 0.341
relative viability ([9]; first compound 2 µM): 0.336
relative viability ([10]; first compound 0.02 µM): 0.946
relative viability ([10]; first compound 0.2 µM): 0.576
relative viability ([10]; first compound 0.6325 µM): 0.742
relative viability ([10]; first compound 2 µM): 0.592
relative viability ([11]; first compound 0.02 µM): 0.942
relative viability ([11]; first compound 0.2 µM): 0.84
relative viability ([11]; first compound 0.6325 µM): 0.846
relative viability ([11]; first compound 2 µM): 0.699
relative viability ([12]; first compound 0.02 µM): 0.32
relative viability ([12]; first compound 0.2 µM): 0.199
relative viability ([12]; first compound 0.6325 µM): 0.205
relative viability ([12]; first compound 2 µM): 0.161
relative viability ([13]; first compound 0.02 µM): 0.418
relative viability ([13]; first compound 0.6325 µM): 0.414
relative viability ([13]; first compound 2 µM): 0.4
relative viability ([14]; first compound 0.02 µM): 0.429
relative viability ([14]; first compound 0.6325 µM): 0.498
relative viability ([14]; first compound 2 µM): 0.369
relative viability ([15]; first compound 0.02 µM): 1.2
relative viability ([15]; first compound 0.2 µM): 1.21
relative viability ([15]; first compound 0.6325 µM): 1.26
relative viability ([15]; first compound 2 µM): 0.717
relative viability ([16]; first compound 0.02 µM): 0.133
relative viability ([16]; first compound 0.2 µM): 0.114
relative viability ([16]; first compound 0.6325 µM): 0.118
relative viability ([16]; first compound 2 µM): 0.111
relative viability ([17]; first compound 0.02 µM): 0.211
relative viability ([17]; first compound 0.2 µM): 0.2
relative viability ([17]; first compound 0.6325 µM): 0.176
relative viability ([17]; first compound 2 µM): 0.184
relative viability ([18]; first compound 0.02 µM): 0.916
relative viability ([18]; first compound 0.6325 µM): 0.925
relative viability ([18]; first compound 2 µM): 0.841
relative viability ([19]; first compound 0.02 µM): 0.191
relative viability ([19]; first compound 0.2 µM): 0.148
relative viability ([19]; first compound 0.6325 µM): 0.159
relative viability ([19]; first compound 2 µM): 0.138
relative viability ([20]; first compound 0.02 µM): 0.626
relative viability ([20]; first compound 0.2 µM): 0.519
relative viability ([20]; first compound 0.6325 µM): 0.642
relative viability ([20]; first compound 2 µM): 0.471
relative viability ([21]; first compound 0.02 µM): 0.162
relative viability ([21]; first compound 0.2 µM): 0.17
relative viability ([21]; first compound 0.6325 µM): 0.189
relative viability ([21]; first compound 2 µM): 0.17
relative viability ([22]; first compound 0.02 µM): 0.923
relative viability ([22]; first compound 0.2 µM): 0.905
relative viability ([22]; first compound 0.6325 µM): 0.886
relative viability ([22]; first compound 2 µM): 0.466
relative viability ([23]; first compound 0.02 µM): 0.477
relative viability ([23]; first compound 0.2 µM): 0.4
relative viability ([23]; first compound 0.6325 µM): 0.501
relative viability ([23]; first compound 2 µM): 0.481
